Test results published in patent US11078194B2, “Salt form and crystal form serving as FGFR and VEGFR inhibitor compounds, and preparation method therefor” (HARBIN ZHENBAO PHARMACEUTICAL CO., LTD., priority 2017, dated 2021).
Where two headings read alike, the source gives them in different places.

How the values were obtained:
[1] = Solubility test of compounds of formula (I)-(IV) in 4 vehicles (water, SGF, FaSSIF, FeSSIF), HPLC; assay type: physicochemical; settings: for solubility at 4 h / solubility at 24 h: thermodynamic from solid; for solubility at 4 h / Solubility (μg/mL)_4 hours: 4 hours stirring; for solubility at 4 h: read-out: Solubility (μg/mL)_4 hours; for solubility at 24 h / Solubility (μg/mL)_24 hours: 24 hours stirring; for solubility at 24 h: read-out: Solubility (μg/mL)_24 hours
Procedure: About 5 mg of the compound of formula (I) was weighed accurately, and placed in a sample bottle. 10 mL of acetonitrile was added. The mixture was sonicated for 5 minutes, cooled to room temperature, and well mixed. Two control sample solutions were prepared in parallel, and labeled as STD-1 and STD-2, respectively.
The control sample solution STD-1 was serially diluted 1, 5, 10, 100 and 1000 times and labeled as linear solutions L1, L2, L3, L4 and L5.
The solubility of the compound of formula (I) and its salt in 4 vehicles with different pH were tested. About 10 mg of the compounds of formula (I)-(IV) were weighed respectively, then 5.0 mL of different vehicles (water, SGF, FaSSIF, FeSSIF) were added thereto, respectively, and well mixed to obtain suspensions. Magnetic stir bars were added into the suspensions, and the suspensions were placed on a magnetic stirrer for stirring. After stirring for 2 hours, 4 hours, and 24 hours, the samples were collected and centrifuged. The residual solid samples in the lower layer were detected by XRPD. The concentrations of the samples in the upper layer were determined by HPLC, and the pH value of the samples were also detected.
(§1) FaSSIF: (1) 0.042 g of sodium hydroxide, 0.3438 g of sodium dihydrogen phosphate and 0.6186 g of sodium chloride were weighed, and 90 mL of purified water was added and well mixed. The pH value of the obtained solution were adjusted to 6.5 with 1 N hydrochloric acid or 1 N sodium hydroxide, and the solution were diluted with purified water to a final volume of 100 mL. (2) 50 mL of the above buffer solution was taken, followed by addition of 0.224 g of commercially available FaSSIF/FeSSIF/FaSSGF powder (Biorelevant.com). The buffer solution was stirred until dissolved, and diluted with purified water to a final volume of 100 mL. The buffer solution was placed at room temperature.
as §1, with “FeSSIF:” for “FaSSIF:”, “0.404” for “0.042”, “0.865” for “0.3438”, “glacial acetic acid, 1.1874” for “sodium dihydrogen phosphate and 0.6186”, “5.0” for “6.5”, “1.12” for “0.224”
FaSSGF (SGF): (1) 0.2 g of sodium chloride was added to 90 mL of purified water and mixed well. The pH value thereof was adjusted to 1.8 with 1 N hydrochloric acid and the solution diluted with purified water to a final volume of 100 mL. The obtained solution was allowed to stand at room temperature.

[2] = Solid stability test of crystal form G, crystal form I and crystal form J (HPLC content, total impurities, XRPD, appearance); assay type: physicochemical
Procedure: About 10 mg of crystal form G, crystal form I, or crystal form J were weighed accurately, and placed on the bottom of a 40 mL glass sample bottle and spread into a thin layer. For an open sample, the bottle mouth thereof was sealed with aluminum foil poked with pinholes to ensure that the sample can fully contact with the ambient air. For a sealed sample, the bottle mouth thereof was sealed with a bottle cap, and wrapped with a sealing film. Two duplicate samples were weighed at each time point of each condition in parallel, and an appropriate amount of sample (not weighed) was taken additionally for XRPD detection. The prepared samples were placed under each condition and were sampled and analyzed when the time point was arrived. On 0th day, 5 control samples were weighed in parallel and stored in a refrigerator at −20° C. until analysis. The samples subjected to light irradiation were prepared by the same method, and placed on the bottom of a 40 mL glass sample bottle. The glass bottle was left open and placed in the upright position in a light irradiation box. In addition, two samples in an appropriate amount were taken as samples in dark, and the glass bottles containing the same were left open, put in the upright position, and wrapped with tin foil, and irradiated with a total luminance of 1.2×10^6Lux.hr and a near ultraviolet power of 200 w.hr/m^2. After irradiation, the samples was stored in the refrigerator at −20° C. for analysis.
The compounds were placed under the following conditions and sampled at different time points to detect the physical properties, and the content and total impurities were analyzed by HPLC.

[3] = FeSSIF, pH 5, fessif, vehicle FeSSIF
[4] = pH of sample in FaSSIF (vehicle pH 6.62)
[5] = pH of sample in FeSSIF (vehicle pH 4.59)
[6] = pH of sample in H2O (vehicle pH 8.23)
[7] = pH of sample in SGF (vehicle pH 1.57)
[8] = Accelerated test (40° C./relative humidity 75%, open), 1st month
[9] = Accelerated test (40° C./relative humidity 75%, open), 2nd month
[10] = Accelerated test (40° C./relative humidity 75%, open), 3rd month
[11] = Accelerated test (40° C./relative humidity 75%, open), 10th day
[12] = Accelerated test (60° C./relative humidity 75%, open), 1st month
[13] = Accelerated test (60° C./relative humidity 75%, open), 2nd month
[14] = Accelerated test (60° C./relative humidity 75%, open), 3rd month
[15] = Accelerated test (60° C./relative humidity 75%, open), 10th day
[16] = High humidity (Room temperature/relative humidity 92.5%, open), 5th day
[17] = High humidity (Room temperature/relative humidity 92.5%, open), 10th day
[18] = High temperature (60° C., open), 5th day
[19] = High temperature (60° C., open), 10th day
[20] = Light irradiation (1.2 × 10^6 Lux·hr, near ultraviolet 200 w·hr/m^2, open), irradiated sample
[21] = Light irradiation test, Dark sample

## C[C@@H](Oc1ccc2[nH]nc(/C=C(\F)c3ccc(CNC4CCOCC4)nc3)c2c1)c1c(Cl)cncc1Cl [compound of formula (I)]
[1]; FaSSIF, pH 6.5, fassif, vehicle FaSSIF
  solubility at 4 h: 781 µg/mL
[1]; [3]
  solubility at 4 h: 1950 µg/mL
  solubility at 24 h: 1730 µg/mL
[1]; SGF, FaSSIF, FeSSIF, conclusion in words
  solubility in the three biological vehicle: good solubility
[1]; [4]
  pH (4 hours): 6.58
  pH (24 hours): 6.57
[1]; [5]
  pH (4 hours): 5.01
  pH (24 hours): 5.01
[1]; [6]
  pH (4 hours): 8.33
  pH (24 hours): 7.97
[1]; [7]
  pH (4 hours): 2.10
  pH (24 hours): 2.06
[1]; vehicle FaSSIF
  Solubility (μg/mL)_24 hours: 611.3 µg/mL
[1]; vehicle H2O
  Solubility (μg/mL)_4 hours: 5.8 µg/mL
  Solubility (μg/mL)_24 hours: <LOQ
[1]; vehicle SGF
  Solubility (μg/mL)_4 hours: 1971.3 µg/mL
  Solubility (μg/mL)_24 hours: 1825.6 µg/mL
[1]; water, conclusion in words, listed as free base
  solubility in the aqueous phase / water: extremely difficult to dissolve

## C[C@@H](Oc1ccc2[nH]nc(/C=C(\F)c3ccc(CNC4CCOCC4)nc3)c2c1)c1c(Cl)cncc1Cl [compound of formula (II)]
[1]; [4]
  pH (4 hours): 6.25
  pH (24 hours): 6.22
[1]; [5]
  pH (4 hours): 4.90
  pH (24 hours): 4.91
[1]; [6]
  pH (4 hours): 2.68
  pH (24 hours): 2.68
[1]; [7]
  pH (4 hours): 1.86
  pH (24 hours): 1.86
[1]; vehicle FaSSIF
  Solubility (μg/mL)_4 hours: 949.7 µg/mL
  Solubility (μg/mL)_24 hours: 281.6 µg/mL
[1]; vehicle FeSSIF
  Solubility (μg/mL)_4 hours: 2010.0 µg/mL
  Solubility (μg/mL)_24 hours: 1831.5 µg/mL
[1]; vehicle H2O
  Solubility (μg/mL)_4 hours: 1576.9 µg/mL
[1]; vehicle SGF
  Solubility (μg/mL)_4 hours: 106.3 µg/mL
  Solubility (μg/mL)_24 hours: 45.4 µg/mL
[1]; water, pH 8.23, water, vehicle H2O
  solubility at 24 h: 1540 µg/mL
[1]; water, conclusion in words, listed as hydrochloride
  solubility in the aqueous phase / water: highest solubility

## C[C@@H](Oc1ccc2[nH]nc(/C=C(\F)c3ccc(CNC4CCOCC4)nc3)c2c1)c1c(Cl)cncc1Cl [crystal form G]
[2]; 0th day
  Appearance: Earth yellow
  Content (%): 100%
  Crystal form (XRPD): form G
  Total impurities (%): 0.11%
[2]; [8]
  Appearance: Earth yellow
  Content (%): 102.45%
  Crystal form (XRPD): form G
  Total impurities (%): 0.16%
[2]; [9]
  Appearance: Earth yellow
  Content (%): 101.07%
  Crystal form (XRPD): form G
  Total impurities (%): 0.17%
[2]; [10]
  Appearance: Earth yellow
  Content (%): 98.81%
  Crystal form (XRPD): form G
  Total impurities (%): 0.18%
[2]; [11]
  Appearance: Earth yellow
  Content (%): 99.97%
  Crystal form (XRPD): form G
  Total impurities (%): 0.11%
[2]; [12]
  Appearance: Earth yellow
  Content (%): 101.51%
  Crystal form (XRPD): form G
  Total impurities (%): 0.17%
[2]; [13]
  Appearance: Earth yellow
  Content (%): 99.86%
  Crystal form (XRPD): form G
  Total impurities (%): 0.18%
[2]; [14]
  Appearance: Earth yellow
  Content (%): 100.21%
  Crystal form (XRPD): form G
  Total impurities (%): 0.19%
[2]; [15]
  Appearance: Earth yellow
  Content (%): 98.38%
  Crystal form (XRPD): form G
  Total impurities (%): 0.15%
[2]; [16]
  Appearance: Earth yellow
  Content (%): 100.82%
  Crystal form (XRPD): form G
  Total impurities (%): 0.11%
[2]; [17]
  Appearance: Earth yellow
  Content (%): 98.79%
  Crystal form (XRPD): form G
  Total impurities (%): 0.11%
[2]; [18]
  Appearance: Earth yellow
  Content (%): 102.02%
  Crystal form (XRPD): form G
  Total impurities (%): 0.16%
[2]; [19]
  Appearance: Earth yellow
  Content (%): 100.14%
  Crystal form (XRPD): form G
  Total impurities (%): 0.16%
[2]; [20]
  Appearance: Earth yellow
  Content (%): 102.93%
  Crystal form (XRPD): form G
  Total impurities (%): 0.37%
[2]; [21]
  Appearance: Earth yellow
  Content (%): 101.69%
  Crystal form (XRPD): form G
  Total impurities (%): 0.11%
[2]; conclusion of influencing factors and accelerated tests
  thermal stability and stability under accelerated conditions: excellent
[2]; dark
  stability under dark conditions: good stability
[2]; light irradiation
  impurities generated under light irradiation conditions: slight impurities
